Active and inactive are the calls of the source. The rule behind the calls is not given here.
What was measured:
[1] = Aqueous solubility of the compound; type: physicochemical
[2] = Partition coefficient, log P in n-octanol/phosphate buffer at pH 7.4; type: physicochemical
Rattus norvegicus [3] = experiment: Effect on TNBS-induced experimental colitis in rectally dosed Sprague-Dawely rat assessed as colon to body weight ratio relative to control; type: functional
Rattus norvegicus [4] = experiment: Ulcerogenic activity in Wistar rat at 2829 mg/kg, po by cold stress method relative to control; type: toxicity, organism-based; set-up: dose 2829 mg/kg, route oral; conditions: in vivo
Rattus norvegicus [5] = experiment: Decrease in TNBS-induced colonic damage in po dosed Sprague-Dawely rat; type: functional, organism-based
Rattus norvegicus [6] = experiment: Ulcerogenic activity in Wistar rat at 3000 mg/kg, po by cold stress method relative to control; type: toxicity, organism-based; set-up: dose 3000 mg/kg, route oral; conditions: in vivo
Rattus norvegicus [7] = experiment: Effect on TNBS-induced experimental colitis in po dosed Sprague-Dawely rat assessed as colon to body weight ratio after 5 days relative to control; type: functional
Rattus norvegicus [8] = experiment: Ulcerogenic activity in Wistar rat at 2290 mg/kg, po by cold stress method relative to control; type: toxicity, organism-based; set-up: dose 2290 mg/kg, route oral; conditions: in vivo

| SMILES | solubility [1] [mg/mL] | logD [2] | Ratio (Rattus norvegicus [3]) | UI (Rattus norvegicus [4]) | Activity (Rattus norvegicus [5]) | UI (Rattus norvegicus [6]) | Ratio (Rattus norvegicus [7]) | UI (Rattus norvegicus [8]) |
| --- | --- | --- | --- | --- | --- | --- | --- | --- |
| O=C([O-])c1cc(/N=N/C(Cc2c[nH]c3ccccc23)C(=O)[O-])ccc1O.[Na+].[Na+] (centres undefined) | 280 | 0.26 | 0.0073 | 13 | Active |  |  |  |
| O=C(O)c1cc(/N=N/c2ccc(S(=O)(=O)Nc3ccccn3)cc2)ccc1O [SULFASALAZINE] |  |  |  |  |  | 9 | 0.008 |  |
| Nc1ccc(O)c(C(=O)O)c1 [MESALAMINE] |  | 0.64 |  |  |  |  |  | 59.6 |
